Assays:
in vitro = conditions: Sprague-Dawley, rat, brain homogenate
Brain [1] = conditions: rat, 5 h, 0.1 µM
Brain [2] = assay: Unbound volume of distribution in Sprague-Dawley rat brain slices at 100 nM after 5 hrs in presence of 10 uM of cyclosporine; type: ADME, tissue-based; conditions: 0.1 µM
in vivo = conditions: Sprague-Dawley, rat
Brain [3] = assay: Drug uptake in Sprague-Dawley rat brain slices in presence of 1 uM of decynium-22; type: ADME, tissue-based
Brain [4] = assay: Drug uptake in Sprague-Dawley rat brain slices in presence of 50 nM of monensin; type: ADME, tissue-based
Brain [5] = assay: Drug uptake in Sprague-Dawley rat brain slices at 100 nM after 5 hrs in presence of 10 uM of cyclosporine; type: ADME, tissue-based; conditions: 0.1 µM
[6] = Dissociation constant, pKa of the basic compound by capillary electrophoresis-mass spectrometry analysis; type: physicochemical

Description for physchem: Dissociation constant, pKa of the acidic compound by capillary electrophoresis-mass spectrometry analysis

| SMILES | pKa (physchem) | fraction unbound at 5 µM (in vitro) | Vdu (Brain [1]; in vivo) | Unbound brain volume of distribution (Brain [2]) | Kp uu (in vivo; brain) | Compound recovery (Brain [3]) | Vdu (Brain [1]) | Kp uu (in vivo; brain and plasma) | Compound recovery (Brain [4]) | Compound recovery (Brain [5]) | pKa [6] |
| --- | --- | --- | --- | --- | --- | --- | --- | --- | --- | --- | --- |
| CC(C)(C)NC(=O)[C@@H]1C[C@@H]2CCCC[C@@H]2CN1C[C@@H](O)[C@H](Cc1ccccc1)NC(=O)[C@H](CC(N)=O)NC(=O)c1ccc2ccccc2n1 | 6.8 | 0.0038 | 208 mL/g | Active | 0.79 | – | – | – | – | – | – |
| C[n+]1ccc(-c2ccccc2)cc1 | – | 0.49 | – | – | – | Not Active | 157 mL/g | 77 | Not Active | – | – |
| CCNC(=O)C(C(N)=O)c1ccccc1 (stereo not drawn) | – | 0.65 | 0.93 mL/g | – | 0.6 | – | – | – | – | – | – |
| C=C[C@H]1C[N+]2(C)CC[C@H]1C[C@@H]2[C@@H](O)c1ccnc2ccc(OC)cc12 | – | 0.23 | – | Active | – | Not Active | 4.6 mL/g | 1.06 | Active | – | – |
| Cc1c(O)cccc1C(=O)N[C@@H](CSc1ccccc1)[C@H](O)CN1C[C@H]2CCCC[C@H]2C[C@H]1C(=O)NC(C)(C)C | 6.3 | 0.00072 | – | Active | – | – | 860 mL/g | 0.62 | – | Not Active | – |
| Cc1nnc2n1-c1ccc(Cl)cc1C(c1ccccc1)=NC2 [ALPRAZOLAM] | – | 0.16 | – | – | – | – | 6.5 mL/g | – | – | – | – |
| C=CCc1ccccc1OCC(O)CNC(C)C (stereo not drawn) [ALPRENOLOL] | – | 0.057 | 50 mL/g | – | 2.83 | – | – | – | – | – | – |
| NC12CC3CC(CC(C3)C1)C2 [AMANTADINE] | – | 0.29 | 9.9 mL/g | – | 2.83 | – | – | – | – | – | – |
| CN(C)CCC=C1c2ccccc2CCc2ccccc21 [AMITRIPTYLINE] | 9.5 | 0.01 | 310 mL/g | – | – | – | – | 3.08 | – | – | – |
| NCC(CC(=O)O)c1ccc(Cl)cc1 (stereo not drawn) [BACLOFEN] | 9.7 | 0.98 | – | – | – | – | 1.7 mL/g | 1.62 | – | – | 3.7 |
| CC(NC(C)(C)C)C(=O)c1cccc(Cl)c1 (stereo not drawn) [BUPROPION] | 8.6 | – | – | – | – | – | 16 mL/g | 2.66 | – | – | – |
| CN/C(=N/CCSCc1nc[nH]c1C)NC#N [CIMETIDINE] | 7 | 0.76 | 2.3 mL/g | – | 1.73 | – | – | – | – | – | – |
| Clc1cccc(Cl)c1N=C1NCCN1 [CLONIDINE] | 8.3 | 0.42 | 5.9 mL/g | – | 2.47 | – | – | – | – | – | – |
| COc1ccc2c3c1O[C@H]1[C@@H](O)C=C[C@H]4[C@@H](C2)N(C)CC[C@@]341 [CODEINE] | 8.4 | 0.62 | 3.2 mL/g | – | 1.99 | – | – | – | – | – | – |
| CC(C)Nc1cccnc1N1CCN(C(=O)c2cc3cc(NS(C)(=O)=O)ccc3[nH]2)CC1 [DELAVIRDINE] | 4.5 | 0.022 | 40 mL/g | – | 0.86 | – | – | – | – | – | – |
| O=C(O)Cc1ccccc1Nc1c(Cl)cccc1Cl [DICLOFENAC] | – | 0.041 | – | – | – | – | 15 mL/g | 0.61 | – | – | – |
| O=C1OC2(c3ccc(O)cc3Oc3cc(O)ccc32)c2ccccc21 [FLUORESCEIN] | – | 0.42 | 1.8 mL/g | – | – | – | – | 0.74 | – | – | – |
| NCC1(CC(=O)O)CCCCC1 [GABAPENTIN] | 10.5 | – | – | – | – | – | 4.6 mL/g | 4.55 | – | – | 3.9 |
| COc1ccc2c(c1)c(CC(=O)O)c(C)n2C(=O)c1ccc(Cl)cc1 [INDOMETHACIN] | – | 0.044 | 14 mL/g | – | 0.6 | – | – | – | Active | – | – |
| Nc1nnc(-c2cccc(Cl)c2Cl)c(N)n1 [LAMOTRIGINE] | – | 0.21 | 4.6 mL/g | – | 0.96 | – | – | – | – | – | – |
| C[C@H]1COc2c(N3CCN(C)CC3)c(F)cc3c(=O)c(C(=O)O)cn1c23.C[C@H]1COc2c(N3CCN(C)CC3)c(F)cc3c(=O)c(C(=O)O)cn1c23.O [LEVOFLOXACIN] | – | 0.84 | – | – | – | – | 1.7 mL/g | 1.44 | – | – | – |
| CN(C)C(=O)C(CCN1CCC(O)(c2ccc(Cl)cc2)CC1)(c1ccccc1)c1ccccc1 [LOPERAMIDE] | 9 | 0.008 | – | Active | – | – | 370 mL/g | 2.95 | – | – | – |
| CN(C)C(=N)N=C(N)N [METFORMIN] | – | 0.95 | – | – | – | – | 10 mL/g | 9.51 | Active | – | – |
| CN(Cc1cnc2nc(N)nc(N)c2n1)c1ccc(C(=O)N[C@@H](CCC(=O)O)C(=O)O)cc1 [METHOTREXATE] | – | 0.89 | 0.68 mL/g | – | 0.61 | – | – | – | – | – | – |

— ChEMBL document CHEMBL3525927, “Measurement of unbound drug exposure in brain: modeling of pH partitioning explains diverging results between the brain slice and brain homogenate methods” (Drug Metab Dispos, 2011)
